Measurements: patent US4508663A, “Process for preparing thiosulfenamide derivatives of N-phosphonomethylglycinonitriles” (Monsanto Company, priority 1983, dated 1985)

Legend:
Assay in all cases: post-emergence herbicidal activity, greenhouse
Type in all cases: in vivo
Crabgrass = conditions: Table II, 4 WAT
Summary of the method: (§1)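 Plants grown from seed or perennial propagules in greenhouse soil pans were sprayed at two to three weeks with compound solution or suspension containing about 0.4% emulsifier, at the stated application rates. Injury relative to untreated controls was scored at approximately two and four weeks after treatment on a post-emergence activity index.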

Soybean = conditions: Table II, 4 WAT
Summary of the method: as §1

Downy Brome = conditions: 4 WAT
Summary of the method: as §1

Morningglory = conditions: 4 WAT
Summary of the method: as §1

Sorghum = conditions: Table II, 4 WAT
Summary of the method: as §1

Rice = conditions: Table II, 4 WAT
Summary of the method: as §1

Wheat = conditions: Table II, 4 WAT
Summary of the method: as §1

Yellow Nutsedge = conditions: Table I, 4 WAT
Summary of the method: as §1

Cocklebur = conditions: 4 WAT
Summary of the method: as §1

Sugar Beet = conditions: Table II, 4 WAT
Summary of the method: as §1

Velvetleaf = conditions: 4 WAT
Summary of the method: as §1

Johnsongrass = conditions: Table I, 4 WAT
Summary of the method: as §1

Panicum Spp = conditions: Table II, 4 WAT
Summary of the method: as §1

Hemp Sesbania = conditions: Table II, 4 WAT
Summary of the method: as §1

Lambsquarters = conditions: 4 WAT
Summary of the method: as §1

Smartweed = conditions: 4 WAT
Summary of the method: as §1

Wild Buckwheat = conditions: Table II, 4 WAT
Summary of the method: as §1

Quackgrass = conditions: Table I, 4 WAT
Summary of the method: as §1

Barnyardgrass = conditions: 4 WAT
Summary of the method: as §1

Canada Thistle = conditions: Table I, 4 WAT
Summary of the method: as §1

Measured: post-emergence herbicidal activity index

N#CCN(CP(=O)(Oc1ccccc1)Oc1ccccc1)SCl [I]
3 (75-99% control): Sorghum; 5.6 kg/h | Cocklebur; Table I, 5.6 kg/h | Lambsquarters; Table I, 11.2 kg/h
0 (0-24% control): Crabgrass; 0.28 kg/h | Downy Brome; Table I, 5.6 kg/h | Downy Brome; Table II, 1.12 kg/h | Morningglory; Table II, 0.28 kg/h | Rice; 0.28 kg/h | Rice; 1.12 kg/h | Wheat; 0.28 kg/h | Sugar Beet; 0.28 kg/h | Sugar Beet; 1.12 kg/h | Sugar Beet; 5.6 kg/h | Panicum Spp; 0.28 kg/h | Panicum Spp; 1.12 kg/h | Hemp Sesbania; 0.28 kg/h | Hemp Sesbania; 1.12 kg/h | Smartweed; Table I, 5.6 kg/h | Smartweed; Table II, 1.12 kg/h | Wild Buckwheat; 0.28 kg/h | Wild Buckwheat; 1.12 kg/h | Quackgrass; 5.6 kg/h | Barnyardgrass; Table II, 0.28 kg/h
1 (25-49% control): Soybean; 0.28 kg/h | Soybean; 1.12 kg/h | Downy Brome; Table II, 0.28 kg/h | Downy Brome; Table II, 5.6 kg/h | Morningglory; Table II, 1.12 kg/h | Sorghum; 0.28 kg/h | Rice; 5.6 kg/h | Wheat; 1.12 kg/h | Wheat; 5.6 kg/h | Velvetleaf; Table II, 0.28 kg/h | Velvetleaf; Table II, 1.12 kg/h | Johnsongrass; 5.6 kg/h | Johnsongrass; 11.2 kg/h | Panicum Spp; 5.6 kg/h | Smartweed; Table II, 0.28 kg/h | Quackgrass; 11.2 kg/h | Barnyardgrass; Table I, 5.6 kg/h | Barnyardgrass; Table II, 1.12 kg/h | Canada Thistle; 5.6 kg/h
4 (100% control): Lambsquarters; Table I, 5.6 kg/h | Lambsquarters; Table II, 1.12 kg/h | Lambsquarters; Table II, 5.6 kg/h
2 (50-74% control): Crabgrass; 1.12 kg/h | Soybean; 5.6 kg/h | Downy Brome; Table I, 11.2 kg/h | Morningglory; Table I, 5.6 kg/h | Morningglory; Table I, 11.2 kg/h | Morningglory; Table II, 5.6 kg/h | Sorghum; 1.12 kg/h | Yellow Nutsedge; 5.6 kg/h | Yellow Nutsedge; 11.2 kg/h | Cocklebur; Table I, 11.2 kg/h | Cocklebur; Table II, 0.28 kg/h | Cocklebur; Table II, 1.12 kg/h | Cocklebur; Table II, 5.6 kg/h | Velvetleaf; Table I, 5.6 kg/h | Velvetleaf; Table I, 11.2 kg/h | Velvetleaf; Table II, 5.6 kg/h | Hemp Sesbania; 5.6 kg/h | Lambsquarters; Table II, 0.28 kg/h | Smartweed; Table I, 11.2 kg/h | Wild Buckwheat; 5.6 kg/h | Barnyardgrass; Table I, 11.2 kg/h | Barnyardgrass; Table II, 5.6 kg/h | Canada Thistle; 11.2 kg/h
